Assay results reported in US20240018121A1, “NOVEL HETEROAROMATIC COMPOUNDS EXHIBITING ANTIFUNGAL ACTIVITY AND THEIR METHOD OF USE” (FOX CHASE CHEMCIAL DIVERSITY CENTER, INC., priority 2020, published 2024).
Values after ≈ are worked out from the molar mass of the structure shown.

Key:
Assay type in all cases: cell-based
[1] = tested on: Aspergillus flavus AFL1 (ATCC MYA-3631); test: Fungal MIC Protocol, Aspergillus flavus; settings: Aspergillus flavus; 100% growth inhibition at 48 hours; read-out: MIC Aspergillus flavus 3631
Method in brief: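 Aspergillus flavus spores were grown on Potato Dextrose Agar at 35° C. for 3-5 days, harvested in PBS pH 7.4+0.1% Tween-20 with glass beads, and diluted in RPMI/MOPS to an OD530 of 0.002 (about 2×10^4 cfu/mL). 50 ul of spores were combined with 50 μl of serially diluted compound in 96-well round bottom plates and incubated at 35° C. for 48 hours.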

[2] = tested on: Aspergillus fumigatus T33439 (ATCC MYA-3626); test: Fungal MIC Protocol, Aspergillus fumigatus; settings: Aspergillus fumigatus; 100% growth inhibition at 48 hours; read-out: MIC Aspergillus fumigatus 3626
Method in brief: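 Aspergillus fumigatus was grown on Potato Dextrose Agar at 35° C. for 3-5 days, and spores were collected with PBS pH 7.4+0.1% Tween-20 plus glass beads. Spores were diluted in RPMI/MOPS to OD530 0.002 (about 2×10^4 cfu/mL). 50 ul was added to 50 μl of serially diluted compound in round bottom 96-well plates, run in duplicate, and incubated at 35° C. for 48 hours.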

[3] = tested on: Fusarium falciforme FS1 (ATCC MYA-3636); test: Fungal MIC Protocol, Fusarium falciforme; settings: Fusarium falciforme; 100% growth inhibition at 48 hours; read-out: MIC Fusarium falciforme 3636
Method in brief: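 Fusarium falciforme spores were raised on Potato Dextrose Agar at 35° C. for 3-5 days, collected in PBS pH 7.4+0.1% Tween-20 with glass beads, and diluted in RPMI/MOPS pH 7.0 to OD530 0.005 (about 2×10^4 cfu/mL). 50 ul spores were added to 50 μl duplicate serial compound dilutions in round bottom 96-well plates and incubated at 35° C. for 48 hours.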

[4] = tested on: Fusarium solani (ATCC 58877); test: Fungal MIC Protocol, Fusarium solani; settings: Fusarium solani, ATCC58877; 100% growth inhibition at 48 hours; read-out: MIC Fusarium solani 58877
Method in brief: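 Fusarium solani spores were grown on Potato Dextrose Agar in tissue culture flasks at 35° C. for 3-5 days, harvested with PBS pH 7.4+0.1% Tween-20 and glass beads, and diluted in RPMI/MOPS to an OD530 of 0.005 (about 2×10^4 cfu/mL). Equal 50 ul volumes of spores and serially diluted compound were combined in 96-well round bottom plates and incubated 48 hours at 35° C.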

[5] = tested on: Mucor circinelloides 1463(62) (ATCC 26759); test: Fungal MIC Protocol, Mucor circinelloides (MIC-50); settings: Mucor circinelloides, ATCC26759; 50% growth inhibition at 48 hours; read-out: MIC-50 Mucorales circinelloides 26579
Method in brief: (§1)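 Harvested spores, adjusted by OD530 to about 2×10^4 cfu/mL in RPMI/MOPS pH 7.0, are mixed with ten duplicate serial dilutions of compound. Incubation runs 48 h at 35° C before visual scoring of the lowest concentration inhibiting growth >50%.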

[6] = tested on: Mucor ramosissimus 057718 (ATCC 90286); test: Fungal MIC Protocol, Mucor ramosissimus (MIC-50); settings: Mucor ramosissimus, ATCC90286; 50% growth inhibition at 48 hours; read-out: MIC-50 Mucorales ramosissimus 90286
Method in brief: as §1

Candida albicans GDH2346 = test: Candida Minimal Inhibitory Concentration (MIC); settings: Candida albicans, GDH2346; 50% growth inhibition at 48 hours; read-out: MIC-50 Candida albicans GDH2346
Method: Candida Minimal Inhibitory Concentration (MIC): RPMI/MOPS media is prepared by dissolving 8.4 g RPMI 1640, 34.52 g MOPS buffer and 2 g glucose in 900 mL water. The pH is adjusted to 7.0 with NaOH. The total volume is brought to 1 L and the resulting solution is filter sterilized. The Candida stock is streaked on a Yeast extract Peptone Dextrose (YPD) agar plate and grown at 35° C. for isolation of single colonies. Compounds of the disclosure are diluted to 200 μg/mL in RPMI/MOPS (4.8 ul of 10 mg/mL DMSO stock in 240 ul media). Ten (10) 1:2 serial dilutions are prepared in RPMI/MOPS in a 96-well round bottom plate. Fifty (50) μl of compound dilutions are transferred in duplicate to a sterile tissue culture-treated 96-well flat-bottom, black-sided polypropylene plate. A single colony of Candida from the YPD plate is re-suspended in 5 mL phosphate buffered saline (BS) and optical density (OD) at 600 nm is measured. The suspension is adjusted to OD=1.0 and a 1:1000 dilution is prepared in RPMI/MOPS. Fifty (50) ul aliquots of the diluted yeast are added to the plates containing 50 μL of compound to all wells except 12E-H. Control wells include: 12 A-D cells, no compound and 12 E-H no cells, no compound. The plates are mixed gently by hand and placed in Ziplok bags in a 35° C. incubator. The OD600 is measured at 24 and 48 hours.

Row | Compound | MIC [1] [µg/mL] | MIC [2] [µg/mL] | MIC [3] [µg/mL] | MIC [4] [µg/mL] | MIC50 [5] [µg/mL] | MIC50 [6] [µg/mL] | MIC50 (Candida albicans GDH2346) [µg/mL]
1 | N=C(N)NCCn1c(-c2ccc(C3=CCN(C(=N)N)CC3)cc2F)nnc1-c1ccc(C2=CCN(C(=N)N)CC2)cc1F [Example 16, 4,4′-(4,4′-(4-(2-guanidinoethyl)-4H-1,2,4-triazole-3,5-diyl)bis(3-fluoro-4,1-phenylene))bis(5,6-dihydropyridine-1(2H)-carboximidamide)] | 0.39 (≈ 0.663 µM) | 0.39 (≈ 0.663 µM) | < 0.1 | < 0.1 | 12.5 (≈ 21.2 µM) | > 100 | 0.39 (≈ 0.663 µM)
2 | Cn1c(-c2cc(F)c(C3=CCN(C(=N)N)CC3)cc2F)nnc1-c1cc(F)c(C2=CCN(C(=N)N)CC2)cc1F [Example 20, 4,4′-(4,4′-(4-Methyl-4H-1,2,4-triazole-3,5-diyl)bis(2,5-difluoro-4,1-phenylene))bis(5,6-dihydropyridine-1(2H)-carboximidamide)] | 0.2 (≈ 0.361 µM) | < 0.1 | < 0.1 | 0.2 (≈ 0.361 µM) | 0.78 (≈ 1.41 µM) | 12.5 (≈ 22.6 µM) | 0.78 (≈ 1.41 µM)
3 | Cn1c(-c2ccc(C3=CCN(C(=N)N)C3)cc2)nnc1-c1ccc(C2=CCN(C(=N)N)C2)c(C(F)(F)F)c1 [Example 27, 3-(4-(5-(4-(1-Carbamimidoyl-2,5-dihydro-1H-pyrrol-3-yl)-3-(trifluoromethyl)phenyl)-4-methyl4H-1,2,4-triazol-3-yl)phenyl)-2,5-dihydro-1H-pyrrole-1-carboximidamide] | 0.39 (≈ 0.748 µM) | < 0.1 | < 0.1 | 0.2 (≈ 0.383 µM) | 0.78 (≈ 1.5 µM) | 6.25 (≈ 12 µM) | 0.39 (≈ 0.748 µM)
4 | Cn1c(-c2ccc(C3=CCN(C(=N)N)C3)cc2)nnc1-c1ccc(C2=CCN(C(=N)N)C2)cc1 [Example 29] | 0.39 (≈ 0.86 µM) | < 0.1 | < 0.1 | 0.39 (≈ 0.86 µM) | 6.25 (≈ 13.8 µM) | 6.25 (≈ 13.8 µM) | 1.56 (≈ 3.44 µM)
5 | N=C(N)N1CC=C(c2ccc(-c3cn(-c4ccc(C5=CCN(C(=N)N)CC5)cc4)nn3)cc2)CC1 [Example 30, 4(4-{1-[4-(1-Carbamimidoyl-1,2,3,6-tetrahydropyridin-4-yl)phenyl]-1H-1,2,3-triazol-4-yl}phenyl)-1,2,3,6-tetrahydropyridine-1-carboximidamide] | 0.06 (≈ 0.128 µM) | 0.01 (≈ 0.0214 µM) | 0.01 (≈ 0.0214 µM) | < 0.05 | 0.1 (≈ 0.214 µM) | 0.78 (≈ 1.67 µM) | 0.63 (≈ 1.35 µM)
6 | Cc1c(-c2ccc(C3=CCN(C(=N)N)CC3)cc2)nnn1-c1ccc(C2=CCN(C(=N)N)CC2)cc1 [Example 31, 4-(4-{1-[4-(1-Carbamimidoyl-1,2,3,6-tetrahydropyridin-4-yl)phenyl]-5-methyl-1H-1,2,3-triazol-4-yl}phenyl)-1,2,3,6-tetrahydropyridine-1-carboximidamide] | < 0.05 | < 0.05 | < 0.05 | < 0.05 | 0.78 (≈ 1.62 µM) | 1.56 (≈ 3.24 µM) | 0.1 (≈ 0.208 µM)

The next lines start with the values.

Row | MIC [1] [µg/mL] | MIC [2] [µg/mL] | MIC [3] [µg/mL] | MIC [4] [µg/mL] | MIC50 [5] [µg/mL] | MIC50 [6] [µg/mL] | MIC50 (Candida albicans GDH2346) [µg/mL] | Compound
7 | 0.39 (≈ 0.717 µM) | < 0.1 | < 0.1 | 0.39 (≈ 0.717 µM) | 0.39 (≈ 0.717 µM) | 0.78 (≈ 1.43 µM) | 3.13 (≈ 5.76 µM) | N=C(N)N1CC=C(c2ccc(-c3nnc(-c4ccc(C5=CCN(C(=N)N)CC5)cc4F)n3C3CC3)c(F)c2)CC1 [Example 17, 4,4′-(4,4′-(4-Cyclopropyl-4H-1,2,4-triazole-3,5-diyl)bis(3-fluoro-4,1-phenylene))bis(5,6-dihydropyridine-1(2H)-carboximidamide)]
8 | 0.03 (≈ 0.058 µM) | 0.01 (≈ 0.0193 µM) | 0.01 (≈ 0.0193 µM) | 0.03 (≈ 0.058 µM) | 0.1 (≈ 0.193 µM) | 0.2 (≈ 0.386 µM) | 0.1 (≈ 0.193 µM) | Cn1c(-c2ccc(C3=CCN(C(=N)N)CC3)c(F)c2)nnc1-c1ccc(C2=CCN(C(=N)N)CC2)c(F)c1 [Example 19, 4,4′-(4,4-(4-Methyl-4H-1,2,4-triazole-3,5-diyl)bis(2-fluoro-4,1-phenylene)) bis(5,6-dihydropyridine-1(2H)-carboximidamide)]
9 | 0.39 (≈ 0.787 µM) | 0.2 (≈ 0.404 µM) | 0.2 (≈ 0.404 µM) | 0.2 (≈ 0.404 µM) | 3.13 (≈ 6.32 µM) | 6.25 (≈ 12.6 µM) | 0.3 (≈ 0.605 µM) | Cc1cc(C2=CCN(C(=N)N)CC2)ccc1-c1nnc(-c2ccc(C3=CCN(C(=N)N)CC3)cc2)n1C [Example 21, 4-(4-(5-(4-(1-Carbamimidoyl-1,2,3,6-tetrahydropyridin-4-yl)-2-methylphenyl)-4-methyl-4H-1,2,4-triazol-3-yl)phenyl)-5,6-dihydropyridine-1(2H)-carboximidamide]
10 | 0.39 (≈ 0.765 µM) | 0.78 (≈ 1.53 µM) | 0.78 (≈ 1.53 µM) | 0.2 (≈ 0.392 µM) | 1.56 (≈ 3.06 µM) | 6.25 (≈ 12.3 µM) | 0.16 (≈ 0.314 µM) | Cc1cc(C2=CCN(C(=N)N)CC2)ccc1-c1nnc(-c2ccc(C3=CCN(C(=N)N)CC3)cc2C)n1C [Example 22, 4,4′-(4,4′-(4-Methyl-4H-1,2,4-triazole-3,5-diyl)bis(3-methyl-4,1-phenylene))bis(5,6-dihydropyridine-1(2H)-carboximidamide)]
11 | 0.78 (≈ 1.48 µM) | 0.39 (≈ 0.738 µM) | 0.39 (≈ 0.738 µM) | 0.2 (≈ 0.378 µM) | 0.39 (≈ 0.738 µM) | 1.56 (≈ 2.95 µM) | 0.39 (≈ 0.738 µM) | CNc1cc(C2=CCN(C(=N)N)CC2)cc(F)c1-c1nnc(-c2ccc(C3=CCN(C(=N)N)CC3)cc2)n1C [Example 23, 4-(4-(5-(4-(1-Carbamimidoyl-1,2,3,6-tetrahydropyridin-4-yl)-2-fluoro-6-(methylamino)phenyl)-4-methyl-4H-1,2,4-triazol-3-yl)phenyl)-5,6-dihydropyridine-1(2H)-carboximidamide]
12 | 1.56 (≈ 3.06 µM) | 0.78 (≈ 1.53 µM) | 0.78 (≈ 1.53 µM) | 0.78 (≈ 1.53 µM) | 6.25 (≈ 12.3 µM) | 50 (≈ 98.1 µM) | 1.56 (≈ 3.06 µM) | Cc1cc(-c2nnc(-c3ccc(C4=CCN(C(=N)N)CC4)c(C)c3)n2C)ccc1C1=CCN(C(=N)N)CC1 [Example 24, 4,4′-(4,4′-(4-Methyl-4H-1,2,4-triazole-3,5-diyl)bis(2-methyl-4,1-phenylene)) bis(5,6-dihydropyridine-1(2H)-carboximidamide)]
13 | 0.39 (≈ 0.71 µM) | 0.2 (≈ 0.364 µM) | 0.2 (≈ 0.364 µM) | 0.2 (≈ 0.364 µM) | 0.78 (≈ 1.42 µM) | 3.13 (≈ 5.69 µM) | 0.78 (≈ 1.42 µM) | Cn1c(-c2ccc(C3=CCN(C(=N)N)CC3)cc2)nnc1-c1ccc(C2=CCN(C(=N)N)CC2)c(C(F)(F)F)c1 [Example 25, 4-(4-(5-(4-(1-Carbamimidoyl-1,2,3,6-tetrahydropyridin-4-yl)-3-(trifluoromethyl)phenyl)-4-methyl-4H-1,2,4-triazol-3-yl)phenyl)-5,6-dihydropyridine-1(2H)-carboximidamide]
